Measurements taken from patent publication US20240174622A1, “COMPOUND AND RADIOACTIVE LABELING COMPOUND” (NIHON MEDI-PHYSICS CO., LTD., priority 2021, published 2024).

Columns and labels:
[1] = molecular target: human serum albumin (HSA) (Homo sapiens, UniProt P02768); experiment: Evaluation of binding to albumin (HSA solution, PBS control); conditions: left to stand in HSA solution (45 mg/mL)
Procedure: Thereafter, the reaction liquids were added to a spin column (Sephadex G-100; manufactured by Cytiva), and centrifuged at 1500×g at 4° C. for 2 minutes. After separation, the radioactivity for each of the column and the eluate was measured with a gamma counter.
When a compound to be evaluated binds to albumin to form a composite, the compound passes through the column because of the increased molecular size.
As in Examples described above, PBS and human albumin were used to evaluate binding to albumin.
Thereafter, the reaction liquid was added to a spin column (Sephadex G-50; manufactured by Cytiva), and centrifuged at 1500×g at 4° C. for 2 minutes. After separation, the radioactivity of the column and the eluate was measured with a gamma counter.

[2] = tested on: LNCaP tumor-transplanted mouse; experiment: Internal radioactivity distribution using LNCaP tumor-transplanted mouse; format: in vivo
Procedure: (§1) The animal test was performed in compliance with the guidelines of Kyoto University Animal Experiment Committee. Male CB17/IcrJcl-Prkdc^scid mice were purchased from CLEA Japan, Inc. The animals were kept under 12 h/12 h, day/night cycle conditions and fed ad libitum with food and water. LNCaP cells (1.0×10^7 cells/mouse) or PC-3 cells (1.0×10^7 cells/mouse) were suspended in a mixture of PBS and Matrigel manufactured by Corning Life Sciences (1:1, 150 μL) and the suspension was subcutaneously transplanted to the right shoulder of mice under isoflurane anesthesia. Thereafter, the mice were kept for 40 to 60 days.
LNCaP or PC-3 tumor-implanted mice were administered saline solutions (185 kBq, 100 μL) of [^111In]In-PSMA-DA1 or [^111In]In-PSMA-DB from the tail vein (n=3 each). Mice were euthanized 1, 4, 24, 48, 96, and 192 hours after administration. Thereafter, blood and each organ were recovered, and the mass and radioactivity of the organs were measured.
The percentage (% ID) of the radioactivity amount to the administered radioactivity amount (injected dose) is shown as the value (% ID/g) divided by the blood mass or the organ mass (g).
LNCaP tumor-implanted mice prepared by the same method as in Example 1-1 were administered a saline solution (241 kBq/100 μL) of [^111In]In-PtDA from the tail vein (n=3). Mice were euthanized 1, 24, and 48 hours after administration. Thereafter, blood and each organ were recovered, and the mass and radioactivity of the organs were measured.
LNCaP tumor-implanted mice prepared by the same method as in Example 1-1 were administered a saline solution (259 kBq/100 μL each) of each of the radiolabeled compounds in Examples 3-1 to 3-3 or Comparative Examples 2-1 to 2-2 from the tail vein (n=2 to 3). Mice were euthanized 1, 4, 24, 48, 96, and 192 hours after administration. Thereafter, blood and each organ were recovered, and the mass and radioactivity of the organs were measured.
as §1, with “LNCaP cells (4.3×10^6 cells/mouse) or” for “LNCaP cells (1.0×10^7 cells/mouse) or”, “PC-3 cells (3.3×10^6 cells/mouse) were” for “PC-3 cells (1.0×10^7 cells/mouse) were”, “shoulder of CB17/IcrJcl-Prkdc^scid mice under” for “shoulder of mice under”
Mice were euthanized 1, 4, 24, 48, 96, and 192 hours after administration. Thereafter, blood and each organ were recovered, and the mass and radioactivity of the organs were measured.
The results are shown in Table 12 (Mean value±standard deviation, n=3).

Chain of human serum albumin (HSA) (P02768 25-609): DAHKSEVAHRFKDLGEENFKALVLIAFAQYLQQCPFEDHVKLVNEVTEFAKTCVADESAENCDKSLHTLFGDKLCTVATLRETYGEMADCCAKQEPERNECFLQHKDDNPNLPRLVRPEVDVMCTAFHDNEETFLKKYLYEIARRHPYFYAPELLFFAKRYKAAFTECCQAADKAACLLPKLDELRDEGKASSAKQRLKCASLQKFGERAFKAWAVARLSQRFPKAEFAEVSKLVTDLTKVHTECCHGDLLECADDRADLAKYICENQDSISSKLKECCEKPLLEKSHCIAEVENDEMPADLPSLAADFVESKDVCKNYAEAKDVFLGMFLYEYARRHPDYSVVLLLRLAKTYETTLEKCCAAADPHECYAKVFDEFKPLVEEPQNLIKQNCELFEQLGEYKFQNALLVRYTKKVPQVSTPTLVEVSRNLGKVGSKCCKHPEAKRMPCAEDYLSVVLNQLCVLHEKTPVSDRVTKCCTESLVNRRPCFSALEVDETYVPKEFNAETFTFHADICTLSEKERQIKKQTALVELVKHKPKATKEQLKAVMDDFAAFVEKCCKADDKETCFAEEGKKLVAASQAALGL

## O=C([O-])CN(Cc1cccc(C(=O)[O-])n1)C[C@H](Cc1ccc(NC(=O)CCCCCNC(=O)CCC(=O)NCCCC[C@H](NC(=O)N[C@@H](CCC(=O)O)C(=O)O)C(=O)O)cc1)N(CC(=O)[O-])Cc1cccc(C(=O)[O-])n1.[111In+3] [[^111In]In-Octapa-1, reference compound]
[1]
  radioactivity in the eluate (in words): low
[2]; 1 h after administration
  Blood: 0.48 ± 0.09 % ID/g
  Brain: 0.02 ± 0.00 % ID/g
  Heart: 0.32 ± 0.08 % ID/g
  Intestine: 0.40 ± 0.13 % ID/g
  Kidney: 322 ± 42.8 % ID/g
  LNCaP Tumor: 9.72 ± 1.65 % ID/g
  Liver: 0.36 ± 0.13 % ID/g
  Lung: 0.99 ± 0.22 % ID/g
  Muscle: 0.20 ± 0.01 % ID/g
  Pancreas: 0.62 ± 0.19 % ID/g
  Spleen: 10.9 ± 5.59 % ID/g
  Stomach (% ID): 0.08 ± 0.01 % ID
[2]; 4 h after administration
  Blood: 0.21 ± 0.18 % ID/g
  Brain: 0.02 ± 0.01 % ID/g
  Heart: 0.18 ± 0.03 % ID/g
  Intestine: 3.50 ± 1.21 % ID/g
  Kidney: 112 ± 54.6 % ID/g
  LNCaP Tumor: 4.73 ± 0.40 % ID/g
  Liver: 0.13 ± 0.02 % ID/g
  Lung: 0.23 ± 0.10 % ID/g
  Muscle: 0.10 ± 0.02 % ID/g
  Pancreas: 0.24 ± 0.07 % ID/g
  Spleen: 3.55 ± 1.75 % ID/g
  Stomach (% ID): 0.37 ± 0.22 % ID
[2]; 24 h after administration
  Blood: 0.02 % ID/g
  Brain: 0.04 ± 0.04 % ID/g
  Heart: 0.04 ± 0.01 % ID/g
  Intestine: 0.27 ± 0.08 % ID/g
  Kidney: 24.9 ± 10.9 % ID/g
  LNCaP Tumor: 2.00 ± 0.61 % ID/g
  Liver: 0.06 ± 0.01 % ID/g
  Lung: 0.13 ± 0.06 % ID/g
  Muscle: 0.01 ± 0.01 % ID/g
  Pancreas: 0.12 ± 0.03 % ID/g
  Spleen: 2.48 ± 1.44 % ID/g
  Stomach (% ID): 0.03 ± 0.01 % ID
[2]; 48 h after administration
  Blood: 0.00 ± 0.00 % ID/g
  Brain: 0.01 ± 0.00 % ID/g
  Heart: 0.02 ± 0.03 % ID/g
  Intestine: 0.52 ± 0.33 % ID/g
  Kidney: 7.48 ± 1.23 % ID/g
  LNCaP Tumor: 0.58 ± 0.11 % ID/g
  Liver: 0.04 ± 0.01 % ID/g
  Lung: 0.06 ± 0.02 % ID/g
  Muscle: 0.01 ± 0.02 % ID/g
  Pancreas: 0.05 ± 0.01 % ID/g
  Spleen: 1.64 ± 0.53 % ID/g
  Stomach (% ID): 0.07 ± 0.04 % ID
[2]; 96 h after administration
  Blood: 0.02 ± 0.01 % ID/g
  Brain: 0.01 ± 0.00 % ID/g
  Heart: 0.03 ± 0.00 % ID/g
  Intestine: 0.13 ± 0.05 % ID/g
  Kidney: 7.24 ± 3.00 % ID/g
  LNCaP Tumor: 0.72 ± 0.11 % ID/g
  Liver: 0.08 ± 0.02 % ID/g
  Lung: 0.09 ± 0.03 % ID/g
  Muscle: 0.03 ± 0.04 % ID/g
  Pancreas: 0.04 ± 0.00 % ID/g
  Spleen: 2.06 ± 0.88 % ID/g
  Stomach (% ID): 0.03 ± 0.01 % ID
[2]; 192 h after administration
  Blood: 0.00 % ID/g
  Brain: 0.01 % ID/g
  Heart: 0.01 % ID/g
  Intestine: 0.02 % ID/g
  Kidney: 2.16 % ID/g
  LNCaP Tumor: 0.36 % ID/g
  Liver: 0.05 % ID/g
  Lung: 0.04 % ID/g
  Muscle: 0.02 % ID/g
  Pancreas: 0.05 % ID/g
  Spleen: 0.85 % ID/g
  Stomach (% ID): 0.01 % ID
